# Source: patent US20120165559A1, “Compounds Having a Physiological Effect” (priority 2009, published 2012)
# Like-named read-outs stand apart in the source and are kept apart here.
# Columns and labels:
# panelists [1] = assay: Mint flavoring evaluated in fondant; assay type: in vivo; details: in a mint flavoring, dosage of 50 ppm
# Protocol: The molecule was tested in a mint flavoring and evaluated in fondant at a dosage of 50 ppm.
# [2] = test system: panelists / flavor experts; assay: Evaluation in mineral water; assay type: in vivo
# Protocol: The molecule was evaluated in mineral water at a dosage of 30 ppm. […] The evaluation of the organoleptic properties of compound 10 was carried out in mineral water at a concentration of 1 ppm.
# panelists [3] = assay: Citrus fruit flavoring in fatty filling; assay type: in vivo; details: 10% in a citrus fruit flavoring, flavoring at 0.3% in fatty filling
# Protocol: The molecule was tested at 10% in a citrus fruit flavoring, the flavoring obtained was at a dose of 0.3% in fatty filling.
# [4] = test system: skin and the mucous membranes, particularly of the mouth, of the nasal fossa and of the throat; assay: Organoleptic and physiological qualities of the compounds, noted by the inventors and flavor experts; assay type: in vivo; details: for Organoleptic qualities: Tables I-V
# Source text: The invention is based on the following observation, made by the inventors and backed up by flavor experts, that the physiological effects of N-ethyl-2-(2-isopropyl-5-methylcyclohexyl)acetamide: As mentioned above, the compounds of general formula (I) according to the invention have particular physiological effects. They cause a cool and/or warm sensation on the skin and the mucous membranes, particularly of the mouth, of the nasal fossa and of the throat. Some of these amides cause a more or less intense refreshing physiological effect giving the foods to which they are added a sensation of freshness, whereas others cause a warming physiological effect. Some of them can also cause other physiological effects, such as tingling or a piquant-burning physiological effect characteristic of substances that activate the trigeminal nerve, therefore giving the foods to which they are added a spicy sensation.
# panel of flavor experts = assay: Comparative evaluation of enantiomers 1′ and 1″ and the racemic mixture by a panel of flavor experts; assay type: in vivo; details: enantiomers taken separately versus each other and versus the racemic mixture
# Source text: The enantiopure compounds 1′ and 1″ obtained in examples 21 and 22 and also the racemic mixture of compound 1 obtained in example 2 were subjected to a panel of flavor experts for a comparative evaluation of the organoleptic and physiological qualities.
# panel of tasters = assay: Flavorings for oro-dental hygiene (mouthwashes, toothpaste); assay type: in vivo; details: alcoholic mouthwash, nonalcoholic mouthwash and toothpaste
# Protocol: Compound 10 was tested in various applications: in an alcoholic mouthwash and a nonalcoholic mouthwash and in toothpaste. […] This molecule is very advantageous since it provides a tingling sensation on the edge of the tongue, which is piquant like a capsicum, and salivating. [table] Dosage of flavoring 0.2% Dosage of flavoring 0.2% Dosage of flavoring 1%
# panelists [5] = assay: Curry/capsicum flavoring evaluated in crackers; assay type: in vivo; details: flavoring in crackers at 5% (final dosage 500 ppm)
# Source text: Compound 10 was subsequently tested in a curry/capsicum flavoring and evaluated in crackers at 5% (final dosage: 500 ppm). [table]
# [6] = test system: skin and the mucous membranes, particularly of the mouth, of the nasal fossa and of the throat; details: known from WO 2007/089252; cited from earlier work
SMILES,Organoleptic qualities [4],also measured
"CNC(=O)CC1CC(C)CCC1C(C)C (racemic) [Compound 1, N-methyl-2-(2-isopropyl-5-methylcyclohexyl)acetamide]",–,"sensation perceived (panelists [1]): intense freshness which lasts for a few minutes; aromatic note of the drink ([2]; dosage of 30 ppm): minty, pine, liquoricy, warming, piquant, salivating; sensation felt ([2]; dosage of 30 ppm): freshness which came very rapidly after swallowing; sensation perceived (panelists [3]): persistent freshness, and a change in the lemon profile; effectiveness as refreshing agent, in terms of intensity and of perception threshold ([4]; comparative study among the refreshing agents 1, 19, 15, 17, 18, 8, 9): the most effective"
"C=C(C)[C@H]1CC[C@H](C)C[C@H]1CC(=O)NC [Compound 1′, N-methylamide of (1′S,2′S,5′S)-2-[(2′-isopropenyl-5′-methyl)cyclohex-1-yl]acetic acid]",–,difference in perception threshold and intensity of the refreshing effect felt (panel of flavor experts): did not make it possible to demonstrate any notable difference
"C=C(C)[C@@H]1CC[C@@H](C)C[C@@H]1CC(=O)NC [Compound 1″, N-methylamide of (1′R,2′R,5′R)-2-[(2′-isopropenyl-5′-methyl)cyclohex-1-yl]acetic acid]",–,difference in perception threshold and intensity of the refreshing effect felt (panel of flavor experts): did not make it possible to demonstrate any notable difference
"CC(C)CNC(=O)CC1CC(C)CCC1C(C)C (stereo not shown) [Compound 2, N-isobutyl-2-(2-isopropyl-5-methylcyclohexyl)acetamide]",Refreshing and tingling,–
"CC1CCC(C(C)C)C(CC(=O)NCC(=O)O)C1 (stereo not shown) [Compound 3, [2-(2-isopropyl-5-methylcyclohexyl)acetylamino]acetatic acid]",Warm,–
"CC(=O)OCCNC(=O)CC1CC(C)CCC1C(C)C (stereo not shown) [Compound 5, [2-(2-isopropyl-5-methylcyclohexyl)acetylamino]ethyl acetate]",Persistent mentholated,–
"CC1CCC(C(C)C)C(CC(=O)NCCO)C1 (stereo not shown) [Compound 6, N-(2-hydroxyethyl)-2-(2-isopropyl-5-methylcyclohexyl)acetamide]","Refreshing and tingling,",–
"CC1CCC(C(C)C)C(CC(=O)NCC(C)(C)O)C1 (stereo not shown) [Compound 7, N-(2-hydroxy-2-methylpropyl)-2-(2-isopropyl-5-methylcyclohexyl)acetamide]","Woody, piquant, and cold,",–
"CNC(=O)C(C)C1CC(C)CCC1C(C)C (stereo not shown) [Compound 8, 2-(2-isopropyl-5-methylcyclohexyl)-N-methylpropionamide]","Piquant, slight",–
"CNC(=O)CC(C)C1CC(C)CCC1C(C)C (stereo not shown) [Compound 9, 3-(2-isopropyl-5-methylcyclohexyl)-N-methylbutyramide]",Cool,–
"COc1cc(CNC(=O)CC2CC(C)CCC2C(C)C)ccc1O (stereo not shown) [Compound 10, N-(4-hydroxy-3-methoxybenzyl)-2-(2-isopropyl-5-methylcyclohexyl)acetamide]","Warm and piquant like pepper, with a salivating effect",sensation felt ([2]; concentration of 1 ppm): burning and salivation sensation which comes immediately after depositing on the tongue; sensation felt (panel of tasters): piquant and warming sensation; physiological effect [4]: strong piquant-burning physiological effect; duration of sensation (panelists [5]): more longlasting sensation
"COC(=O)c1ccccc1NC(=O)CC1CC(C)CCC1C(C)C (stereo not shown) [Compound 11, N-(2-methyloxycarbonylphenyl)-2-(2-isopropyl-5-methylcyclohexyl)acetamide]",Warm,"physiological effect [4]: notable warming physiological effect, devoid of the piquant-burning aspect"
"CC1CCC(C(C)C)C(CC(=O)Nc2ccc(C#N)cc2)C1 (stereo not shown) [Compound 12, N-(4-cyanophenyl)-2-(2-isopropyl-5-methylcyclohexyl)acetamide]",Warm,–
"CC1CCC(C(C)C)C(CC(=O)Nc2ccc(CC#N)cc2)C1 (stereo not shown) [Compound 13, N-(4-cyanomethylphenyl)-2-(2-isopropyl-5-methylcyclohexyl)acetamide]",Warm,–
"CC1CCC(C(C)C)C(CC(=O)NCc2ccc3c(c2)OCO3)C1 (stereo not shown) [Compound 14, N-benzo[1,3]dioxol-5-ylmethyl-2-(2-isopropyl-5-methylcyclohexyl)acetamide]","Warm and cold at the back of the throat, with a vanilla note",–
"C=C(C)C1CCC(C)CC1CC(=O)NC (stereo not shown) [Compound 15, 2-(2-isopropenyl-5-methylcyclohexyl)-N-methylacetamide]",Refreshing,–
"C=C(C)C1CCC(C)CC1CC(=O)NCc1ccc(O)c(OC)c1 (stereo not shown) [Compound 16, N-(4-hydroxy-3-methoxybenzyl)-2-(2-isopropenyl-5-methylcyclohexyl)acetamide]","Powerful piquant with delayed effect, salivating, slightly woody",–
"CNC(=O)CC1=C(C(C)C)CCC(C)C1 (stereo not shown) [Compound 17, 2-(2-isopropyl-5-methylcyclohex-1-enyl)-N-methylacetamide]",Refreshing,melting point: 82 °C
"CNC(=O)C=C1CC(C)CCC1C(C)C (stereo not shown) [Compound 18, 2-(2-isopropyl-5-methylcyclohexylidene)-N-methylacetamide]",Refreshing,–
"CNC(=O)CC1C=C(C)CCC1C(C)C (stereo not shown) [Compound 19, 2-(6-isopropyl-3-methylcyclohex-2-enyl)-N-methylacetamide]",Refreshing with a delayed,–
CCNC(=O)CC1CC(C)CCC1C(C)C (stereo not shown) [N-ethyl-2-(2-isopropyl-5-methylcyclohexyl)acetamide],–,physiological effect [6]: refreshing agent
